ChEMBL document CHEMBL1201862, “PubChem BioAssay data set” (2004)
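Five concentrations, 48 hours, 96-well plates. Here, GI50 denotes the concentration required for 50% inhibition of growth.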 The source made the active and inactive calls. Rule as the data show it: active = GI50 up to about 1.1 µM and inactive = higher.

Assays:
Assay in all cases: growth of human tumour cells (NCI), 48 h
[1] = tested on: KM12
[2] = tested on: CCRF-CEM
[3] = tested on: SW-620
[4] = tested on: SF-268
[5] = tested on: SK-OV-3
[6] = tested on: TK-10
[7] = tested on: M19-MEL
[8] = tested on: HCC 2998
[9] = tested on: NCI-H522
[10] = tested on: RXF 393
[11] = tested on: HCT-116
[12] = tested on: KM-20L2
[13] = tested on: UACC-62
[14] = tested on: SK-MEL-28
[15] = tested on: HOP-92
[16] = tested on: COLO 205
[17] = tested on: HL-60
[18] = tested on: HOP-62
[19] = tested on: LXFL 529
[20] = tested on: SR
[21] = tested on: HCT-15
[22] = tested on: NCI-H23
[23] = tested on: Malme-3M
[24] = tested on: A549
[25] = tested on: HT-29
[26] = tested on: SN12C
[27] = tested on: UO-31
[28] = tested on: U-251
[29] = tested on: OVCAR-4
[30] = tested on: RPMI-8226
[31] = tested on: IGROV-1
[32] = tested on: SNB-19
[33] = tested on: 786-0
[34] = tested on: OVCAR-5
[35] = tested on: DMS-114
[36] = tested on: SF-295
[37] = tested on: SK-MEL-2
[38] = tested on: OVCAR-3
[39] = tested on: CAKI-1
[40] = tested on: SF-539
[41] = tested on: EKVX
[42] = tested on: M14
[43] = tested on: K562
[44] = tested on: A498
[45] = tested on: SK-MEL-5
[46] = tested on: DLD-1
[47] = tested on: MOLT-4
[48] = tested on: OVCAR-8
[49] = tested on: Hs-578T
[50] = tested on: MDA-N
[51] = tested on: NCI-H226
[52] = tested on: NCI-H460
[53] = tested on: MDA-MB-435
[54] = tested on: NCI/ADR-RES
[55] = tested on: BT-549
[56] = tested on: DU-145
[57] = tested on: UACC-257
[58] = tested on: SNB-75
[59] = tested on: PC-3
[60] = tested on: T47D
[61] = tested on: MDA-MB-231
[62] = tested on: MCF7
[63] = tested on: ACHN
[64] = tested on: LOX IMVI

In the case of `C=CCC1C(=O)C(C(=O)OC)N2CCc3c([nH]c4ccccc34)C12` (configuration not stated), the GI50 [1] is reported as > 100 µM (inactive), the GI50 [2] is reported as 95.5 µM (inactive) and the GI50 [3] is reported as > 100 µM (inactive). The GI50 [4] was > 100 µM (inactive), the GI50 [5] was > 100 µM (inactive) and the GI50 [6] was > 100 µM (inactive). For the same compound, the GI50 [7] was > 100 µM (inactive), the GI50 [8] was > 100 µM (inactive) and the GI50 [9] was 80 µM (inactive). For the same compound, the GI50 [10] was > 100 µM (inactive), the GI50 [11] was > 100 µM (inactive) and the GI50 [12] was > 100 µM (inactive). For the same compound, the GI50 [13] was > 100 µM (inactive), the GI50 [14] was > 100 µM (inactive) and the GI50 [15] was 57.4 µM (inactive). For the same compound, the GI50 [16] was > 100 µM (inactive), the GI50 [17] was > 100 µM (inactive) and the GI50 [18] was > 100 µM (inactive). For the same compound, the GI50 [19] was > 100 µM (inactive), the GI50 [20] was 61.1 µM (inactive) and the GI50 [21] was greater than 100 µM. For the same compound, the GI50 [22] was > 100 µM (inactive), the GI50 [23] was > 100 µM (inactive) and the GI50 [24] was > 100 µM (inactive). The GI50 [25] was > 100 µM (inactive), the GI50 [26] was > 100 µM (inactive) and the GI50 [27] was > 100 µM (inactive). The GI50 [28] was > 100 µM (inactive), the GI50 [29] was > 100 µM (inactive) and the GI50 [30] was 59.2 µM (inactive). For the same compound, the GI50 [31] was > 100 µM (inactive), the GI50 [32] was > 100 µM (inactive) and the GI50 [33] was > 100 µM (inactive). For the same compound, the GI50 [34] was > 100 µM (inactive), the GI50 [35] was > 100 µM (inactive) and the GI50 [36] was > 100 µM (inactive). The GI50 [37] was > 100 µM (inactive), the GI50 [38] was > 100 µM (inactive) and the GI50 [39] was > 100 µM (inactive). For the same compound, the GI50 [40] was > 100 µM (inactive), the GI50 [41] was > 100 µM (inactive) and the GI50 [42] was > 100 µM (inactive). For the same compound, the GI50 [43] was > 100 µM (inactive), the GI50 [44] was > 100 µM (inactive) and the GI50 [45] was > 100 µM (inactive). For the same compound, the GI50 [46] was > 100 µM (inactive), the GI50 [47] was 64.9 µM (inactive) and the GI50 [48] was > 100 µM (inactive).
With `CCCC[C@H]1C(=O)O[C@H](C)[C@H](NC(=O)c2cccc(NC=O)c2OC)C(=O)O[C@@H](C)[C@@H]1OC(=O)C(C)CC.CCCC[C@H]1C(=O)O[C@H](C)[C@H](NC(=O)c2cccc(NC=O)c2OC)C(=O)O[C@@H](C)[C@@H]1OC(=O)CC(C)C` (some centres not stated) the GI50 [1] was 11.6 µM (inactive), the GI50 [2] was 3.32 µM (inactive) and the GI50 [3] was 20.3 µM (inactive). For the same compound, the GI50 [49] was 17.7 µM (inactive), the GI50 [4] was 14.2 µM (inactive) and the GI50 [5] was 12.5 µM (inactive). The GI50 [6] was 12.9 µM (inactive), the GI50 [8] was 29 µM (inactive) and the GI50 [50] was 17.6 µM (inactive). For the same compound, the GI50 [51] was 12.2 µM (inactive), the GI50 [9] was 8.51 µM (inactive) and the GI50 [10] was 14.1 µM (inactive). For the same compound, the GI50 [11] was 12.1 µM (inactive), the GI50 [52] was 5.35 µM (inactive) and the GI50 [13] was 7.14 µM (inactive). The GI50 [14] was 21.6 µM (inactive), the GI50 [15] was 6.98 µM (inactive) and the GI50 [16] was 11.7 µM (inactive). For the same compound, the GI50 [17] was 10.6 µM (inactive), the GI50 [18] was 17.8 µM (inactive) and the GI50 [20] was 14.5 µM (inactive). The GI50 [53] was 10.3 µM (inactive), the GI50 [54] was 23 µM (inactive) and the GI50 [21] was 12.8 µM. For the same compound, the GI50 [22] was 7.36 µM (inactive), the GI50 [23] was 15.8 µM (inactive) and the GI50 [24] was 10.3 µM (inactive). The GI50 [25] was 9.84 µM (inactive), the GI50 [26] was 17.3 µM (inactive) and the GI50 [55] was 16.8 µM (inactive). For the same compound, the GI50 [27] was 14.8 µM (inactive), the GI50 [28] was 9.46 µM (inactive) and the GI50 [29] was 7.94 µM (inactive). The GI50 [30] was 10.2 µM (inactive), the GI50 [31] was 7.1 µM (inactive) and the GI50 [32] was 9.44 µM (inactive). The GI50 [33] was 12.1 µM (inactive), the GI50 [34] was 22.2 µM (inactive) and the GI50 [36] was 7.45 µM (inactive). For the same compound, the GI50 [37] was 6.07 µM (inactive), the GI50 [38] was 10.2 µM (inactive) and the GI50 [56] was 13.4 µM (inactive). The GI50 [39] was 7.87 µM (inactive), the GI50 [57] was 12.1 µM (inactive) and the GI50 [58] was 8.02 µM (inactive). The GI50 [59] was 9.42 µM (inactive), the GI50 [60] was 14 µM (inactive) and the GI50 [40] was 15.8 µM (inactive). For the same compound, the GI50 [41] was 11 µM (inactive), the GI50 [42] was 14.6 µM (inactive) and the GI50 [43] was 12.2 µM (inactive). For the same compound, the GI50 [44] was 8.81 µM (inactive), the GI50 [45] was 12 µM (inactive) and the GI50 [61] was 12.1 µM (inactive). For the same compound, the GI50 [62] was 12.5 µM (inactive), the GI50 [47] was 11.2 µM (inactive) and the GI50 [63] was 10.8 µM (inactive). The GI50 [48] was 12.9 µM (inactive) and the GI50 [64] was 10.3 µM (inactive).
